Reference: patent US8961930B2, “Isatin derivatives for use as in vivo imaging agents” (Imperial Innovations Limited, priority 2008, dated 2015)
One block for each compound: values may come before it.

Tests used:
caspase 7 = biological target: T1, caspase 7 (Homo sapiens, UniProt P55210); assay: Fluorimetric in vitro caspase inhibition assay (7-AMC), caspase 7; assay type: biochemical; conditions: recombinant human caspase 7, 10 μM Ac-DEVD-AMC
T1 construct: purchased Biomol International, UK
T1 sequence (P55210 24-198 limits assumed): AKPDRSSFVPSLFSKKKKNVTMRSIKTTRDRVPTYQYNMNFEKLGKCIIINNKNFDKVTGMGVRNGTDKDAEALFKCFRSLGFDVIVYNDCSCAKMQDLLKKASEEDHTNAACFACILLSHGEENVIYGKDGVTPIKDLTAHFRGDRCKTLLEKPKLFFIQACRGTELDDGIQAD
T1 sequence (P55210 207-303 limits assumed): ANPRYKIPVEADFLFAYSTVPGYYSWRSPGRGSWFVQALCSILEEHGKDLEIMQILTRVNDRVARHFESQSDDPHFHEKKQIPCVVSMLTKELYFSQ
Method: (§1) Recombinant human caspases-1, -3, -6, -7, and -8 and their peptide-specific substrates were purchased from Biomol International, UK Inhibition of the recombinant caspases by non-radioactive isatins was assessed using a fluorometric assay that measures the accumulation of a fluorogenic product, 7-amino-4-methylcoumarin (7-AMC). All assays were performed in 96-well plates at a volume of 200 μl per well. The assays were performed at 37° C. in an appropriate reaction buffer as described below for each caspase. For caspase 1, the buffer comprised of 0.1% CHAPS, 100 mM NaCl, 5 mM 2-mercaptoethanol, 100 mM HEPES (pH 7.4), 2 mM EDTA, 10% sucrose, and 10 μM of the peptide substrate Ac-YVAD-AMC. For caspase 3: 20 mM HEPES (pH 7.4), 10% sucrose, 100 mM NaCl, 0.1% CHAPS, 2 m, mM EDTA, and 10 μM Ac-DEVD-AMC. For caspase 6: 20 mM HEPES (pH 7.4), 10% sucrose, 100 mM NaCl, 0.1% CHAPS, 2 mM EDTA, and 10 μM Ac-VEID-AMC. For caspase 7: 20 mM HEPES (pH 7.4), 10% sucrose, 5 mM 2-mercaptoethanol, 100 mM NaCl, 0.1% CHAPS, 2 mM EDTA, 10 μM Ac-DEVD-AMC. For caspase 8: 20 mM HEPES (pH 7.4), 10% sucrose, 100 mM NaCl, 0.1% CHAPS, 2 mM EDTA, and 10 μM Ac-IETD-AMC. The Buffers contained non-radioactive isatins in DMSO at a final concentration of 500, 50, 5 μM; 500, 50, 5 nM; 500, 50, 5 pM; the final concentration of DMSO in all wells was 5% of the total volume. Recombinant caspases were used at 0.5 units per assay (˜500 pmol substrate converted per h). All reagents except the peptide substrate were pre-incubated for 10 min. The peptide substrate (final concentration 10 μM) was then added and the plate was incubated for a further 30 min; 30 min was selected after initial linearity study where reaction was assessed after 10, 30, 60 or 90 min. The 30 min time point was selected. Respective control wells contained all reaction components without enzyme. The amount of 7-AMC produced was measured on a fluorescence microplate reader (Victor2; Perkin-Elmer Life sciences) at excitation and emission wavelengths of 355 nm and 460 nm, respectively. The concentration of isatin that inhibits the caspase activity by 50% (EC50) was estimated by non-linear regression analysis using GraphPad Prism (Version 4.0 for Windows, GraphPad Software, San Diego Calif. USA). All the isatins were analyzed in duplicate; the assays were repeated once. Known compounds 13-16 were included as reference compounds.
(§2) The data are the average for two runs, each of which was duplicated, at nine concentrations ranging from 5 pM to 500 μM; the drug concentration required to inhibit each enzyme by 50% (EC50) was obtained from nonlinear regression analysis of the inhibition profiles.

caspase 1 = biological target: T2, caspase 1 (Homo sapiens, UniProt P29466); assay: Fluorimetric in vitro caspase inhibition assay (7-AMC), caspase 1; assay type: biochemical; conditions: recombinant human caspase 1, 10 μM Ac-YVAD-AMC; read-out: Caspase EC50 (nM), 1/6/8: caspase 1
T2 construct: purchased Biomol International, UK
T2 sequence (P29466 120-297 limits assumed): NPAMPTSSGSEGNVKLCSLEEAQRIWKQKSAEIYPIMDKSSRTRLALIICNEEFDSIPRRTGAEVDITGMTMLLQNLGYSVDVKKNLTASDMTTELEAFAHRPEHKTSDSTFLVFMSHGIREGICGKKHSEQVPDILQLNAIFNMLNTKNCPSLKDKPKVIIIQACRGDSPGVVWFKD
T2 sequence (P29466 317-404 limits assumed): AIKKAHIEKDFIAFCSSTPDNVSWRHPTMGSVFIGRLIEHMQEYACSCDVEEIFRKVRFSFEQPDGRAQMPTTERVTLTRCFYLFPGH
Method: as §1, §2

caspase 6 = biological target: T3, caspase 6 (Homo sapiens, UniProt P55212); assay: Fluorimetric in vitro caspase inhibition assay (7-AMC), caspase 6; assay type: biochemical; conditions: recombinant human caspase 6, 10 μM Ac-VEID-AMC; read-out: Caspase EC50 (nM), 1/6/8: caspase 6
T3 construct: purchased Biomol International, UK
T3 sequence (P55212 24-179 limits assumed): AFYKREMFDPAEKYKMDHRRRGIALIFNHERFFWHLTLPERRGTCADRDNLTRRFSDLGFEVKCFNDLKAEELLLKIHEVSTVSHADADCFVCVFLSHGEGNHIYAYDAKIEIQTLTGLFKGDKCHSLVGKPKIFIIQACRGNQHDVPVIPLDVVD
T3 sequence (P55212 194-293 limits assumed): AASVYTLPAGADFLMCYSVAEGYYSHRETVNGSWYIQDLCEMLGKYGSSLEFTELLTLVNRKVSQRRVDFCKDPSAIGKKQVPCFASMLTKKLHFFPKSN
Method: as §1, §2

caspase 8 = biological target: T4, caspase 8 (Homo sapiens, UniProt Q14790); assay: Fluorimetric in vitro caspase inhibition assay (7-AMC), caspase 8; assay type: biochemical; conditions: recombinant human caspase 8, 10 μM Ac-IETD-AMC; read-out: Caspase EC50 (nM), 1/6/8: caspase 8
T4 construct: purchased Biomol International, UK
T4 sequence (Q14790 217-374 limits assumed): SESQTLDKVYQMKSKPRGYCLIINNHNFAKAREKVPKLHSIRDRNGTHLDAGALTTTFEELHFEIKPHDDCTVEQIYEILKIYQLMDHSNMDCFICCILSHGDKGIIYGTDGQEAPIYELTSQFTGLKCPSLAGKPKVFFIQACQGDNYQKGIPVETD
T4 sequence (Q14790 385-479 limits assumed): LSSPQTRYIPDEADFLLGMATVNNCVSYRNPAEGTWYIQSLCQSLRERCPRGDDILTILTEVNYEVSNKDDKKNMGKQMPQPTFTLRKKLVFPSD
Method: as §1, §2

38C13 lymphoma cells = assay: Binding in 38C13 lymphoma cells undergoing treatment-induced apoptosis; assay type: cell-based, murine; conditions: 38C13 cells, 4-HC 1 μg/mL 24 h
Method: (left panel). Chemical structure and [^18F]11 binding in 38C13 lymphoma cells treated with 4-hydroperoxycyclophosphamide 4-HC (4-HC; 1 μg/mL; 24 h) to induce apoptosis. For all treated and control samples, radioactivity data were expressed as decay-corrected counts per milligram of total cellular protein. (right panel) The effect of 4-HC on the binding of the low affinity probe, [^18F]42, in 38C13 lymphoma cells. Data are mean±s.e.m.
A further aspect of the project has involved analysis of the weak isatin caspase-3 inhibitor N-[1-(2-Fluoroethyl)-1H-[1,2,3]-triazol-4-yl]isatin (compound 42). […] However, [^18F]42 lacks the pyrrolidine sulphonamide functionality that confers high affinity and selectivity for caspase-3. [^18F]42 was investigated in cell uptake assays for direct comparison with [^18F]11. The purpose of this was to examine the uptake profiles of the compounds in an effort to determine if uptake was the result of increased cell permeability, a characteristic trait of apoptotic cells, or the result of caspase-3 binding. Unlike [^18F]11, there was no increase in [^18F]42 binding following drug treatment (see FIG. 26), supporting the notion that [^18F]11 binding is due to caspase 3 activation.

[1] = In vivo metabolism studies, radio-HPLC of plasma, liver and urine; parameters: species or system C3H/hej mice
Method: [^18F]11 was injected intravenously into tumor-bearing mice and its tissue distribution was measured in selected tissues at 2, 15 and 60 min after injection. […] Furthermore, the in vivo metabolic stability of the radiotracer was determined from plasma and liver samples and, for [^18F]11, in urine samples.
In vivo metabolism studies were also performed in C3H/hej mice. […] Plasma, liver and urine samples were snap-frozen in liquid nitrogen and kept in pre-weighed scintillation counting tubes on dry ice prior to analysis.
Immediately prior to extraction the samples were thawed and placed on ice. For extraction, ice cold acetonitrile (1.5 mL) was added to plasma (0.2 mL); S9 incubation samples (3 mL) containing acetonitrile were also analysed. Each mixture was centrifuged (15493×g, 4° C., 3 min) and the resulting supernatant was evaporated to dryness under vacuum at 40° C. using a rotary evaporator. Liver samples were homogenized with ice cold acetonitrile (1.5 mL) using an IKA Ultra-Turrax T-25 homogeniser prior to centrifugation. The residues were then re-suspended in HPLC mobile phase (1.2 mL) and filtered through a Minisart hydrophilic syringe filter (0.2 μm) (Sartorius, Goettingen, Germany). Urine samples were diluted with HPLC mobile phase, filtered as above. The samples (1 mL) were then analyzed by radio-HPLC on an Agilent 1100 series HPLC system (Agilent Technologies, Stockport, UK) equipped with a γ-RAM Model 3 gamma-detector and the Laura software (IN/US Systems inc., Florida, USA).
The stationary phase comprised of a Waters μBondapak C18 reverse-phase column (300×7.8 mm). […] Furthermore, to assess the fraction of [^18F]9-derived radioactivity associated with the plasma and liver pellets after extraction versus that remaining in the HPLC injectate, the total volume of HPLC injectate was recorded and an aliquot (0.1 mL) removed for counting. The radioactivity in the 0.1 mL aliquot and the pellet were then analyzed by gamma counting (Packard Instruments).

[2] = In vivo biodistribution studies (Example 5); parameters: species or system C3H/hej mice; conditions: mice, i.v., 2-60 min
Method: The stability of novel compound [^18F]11 and known compound [^125I]14 in plasma and liver was measured over time following administration in mice. [^18F]11 was injected intravenously into tumor-bearing mice and its tissue distribution was measured in selected tissues at 2, 15 and 60 min after injection. [^125I]14 was injected intravenously into non-tumour bearing mice and its tissue distribution was measured at selected time points from 2 to 60 minutes after injection. Furthermore, the in vivo metabolic stability of the radiotracer was determined from plasma and liver samples and, for [^18F]11, in urine samples.
The radiation-induced murine fibrosarcoma (RIF-1) tumour cells^20 were maintained in RPMI 1640 medium (Invitrogen Ltd, Paisley, UK) supplemented with 10% fetal calf serum (BioWhittaker Europe Ltd, Verviers, Belgium), 2 mM L-glutamine, 100 U/mL penicillin, 100 μg/mL streptomycin and 0.25 μg/mL fungizone (Gibco, UK) at 37° C. in a humidified incubator with 5% CO2. All animal work was done by licensed investigators in accordance with the United Kingdom's “Guidance on the Operation of Animals (Scientific Procedures) Act 1986” (HMSO, London, United Kingdom, 1990) and in full compliance with government regulations and guidelines on the welfare of animals in experimental neoplasia^21. Tumors were established in mice by subcutaneous injection of 5×10^5 cells on the back of male C3H/hej mice (Harlan, Bicester, Oxfordshire, UK). Tumour growth was monitored every two days using electronic callipers, and tumor volume estimated using the equation (π/6)×L×W×D (L=length, W=width and D=depth). Animals were selected for biodistribution studies of [^18F]11 when the tumors reached ˜100-150 mm^3; biodistribution of [^125I]14 was done in non-tumor-bearing mice.
Mice were injected intravenously via the lateral vein with 0.08-0.13 mL of radioactivity (˜0.37 MBq of [^125I]14 or 3.7 MBq of [^18F]11) dissolved in phosphate buffered saline. At selected times after injection (2-60 min) mice were sacrificed by exsanguination via cardiac puncture under general anesthesia (isofluorane inhalation). Aliquots of heparinised blood were rapidly centrifuged (2000 g for 5 minutes) to obtain plasma. The radioactivity contained in tissues was determined by gamma-counting on a Cobra II Auto-Gamma counter (Packard Instruments, Meriden, Conn., USA) and expressed as a percentage of injected dose per gram of tissue (% ID/g). A minimum of three mice was used for each time point. All animals were treatment-naïve.

EC50 (caspase 7): 16.8 nM
EC50 (caspase 1): > 5000 nM
EC50 (caspase 6): > 5000 nM
EC50 (caspase 8): > 5000 nM
Compound: O=C1C(=O)N(Cc2ccc(F)cc2)c2ccc(S(=O)(=O)N3CCC[C@H]3COc3cc(F)cc(F)c3)cc21 [Compound 3, (S)-1-(4-Fluorobenzyl)-5-(2-(3,5-difluorophenoxymethyl)-pyrrolidine-1-sulfonyl)isatin]

Compound: O=C1C(=O)N(c2cn(CCF)nn2)c2ccccc21 [[^18F]42, N-[1-(2-Fluoroethyl)-1H-[1,2,3]-triazol-4-yl]isatin]
binding following drug treatment (38C13 lymphoma cells): no increase

parent as share of the radioactivity detected in the liver ([1]; 10 min after injection, n=3): < 15%
time until parent fully metabolized in the liver ([1]; mice, after injection): ≤ 30 min
time to complete elimination of parent from plasma ([1]; mice, i.v.): ≤ 10 min
Compound: O=C1C(=O)N(Cc2ccc(I)cc2)c2ccc(S(=O)(=O)N3CCC[C@H]3COc3ccccc3)cc21 [[^125I]14, (S)-1-(4-iodobenzyl)-5-(2-phenoxymethyl-pyrrolidine-1-sulfonyl)isatin, reference compound]
tissue distribution and elimination [2]: distributed rapidly to the major organs and was also rapidly eliminated
